Results published in paper PMC3825534 (Journal of Cancer Research and Clinical Oncology, 2013).
Blank lines part the entries; values can stand above or below the molecule they belong to.

Key:
[1] = tested on: reactive oxygen species (ROS) generation; set-up: method as in Locatelli et al. [2004]; details: ref Locatelli et al. [2004]; cited from earlier work
[2] = cited from earlier work
panel of 97 kinases = experiment: KINOMEscan binding assay, whole panel; details: for kinase binding: 10 µM, panel of 97 kinases; for Interactions Mapped / S-Score(35): 10 μM; for Interactions Mapped: 97 Assays Tested; for S-Score(35): number of non-mutant kinases with POC <35/number of non-mutant kinases tested
Method: (§1) The binding affinities of ABZ and MBZ were tested at 10 μM in a high-throughput binding assay (KINOMEscan, Discoverx, CA, USA) against a panel of 97 kinases tagged with DNA (Davis et al. [2011]). Compounds that bind the kinase active site and directly or indirectly prevent kinase binding to an immobilized ligand will reduce the amount of kinase captured on solid support. […] Hits are identified by measuring the amount of kinase captured in test versus control samples by using a quantitative PCR method that detects the associated DNA label (http://www.discoverx.com/tools-resources/publications-references). Results are presented as percent of control (POC). Selectivity score (S-score) is a quantitative measure of compound selectivity. S(35) is calculated as number of non-mutant kinases with POC <35/number of non-mutant kinases tested. Binding constants were determined with the same method using 11-point threefold serial dilutions of the compound. Curves were fitted using a nonlinear least square fit with the Levenberg–Marquardt algorithm (Davis et al. [2011]).

[3] = tested on: colon cancer cell lines RKO and HCT116; experiment: FMCA primary screening at 10 μM; assay type: cell-based, human; details: 10 μM drug concentration; both cell lines; hit criterion SI <40 %
Method: For primary screening, the colon cancer cell lines HCT 116 and RKO, obtained from American Type Culture Collection (ATCC; Rockville, MD, USA), were cultured in McCoy’s 5a medium supplemented with 10 % heat-inactivated fetal bovine serum, 2 mM L-glutamine, 100 μg/ml streptomycin and 100 U/ml penicillin (all from Sigma-Aldrich St. Louis, MO, USA).
The Pharmakon 1600 library (Microsource Inc, MO, USA) consists of 1,600 annotated compounds previously used in the clinical setting. The library was delivered in […] each containing 80 compounds at a concentration of 10 mM dissolved in DMSO. For the primary screening, aliquots of the DMSO solutions were transferred to 384-well Labcyte source plates (Labcyte Inc, CA, USA) using a Biomek 2000 and stored at room temperature in containers under nitrogen atmosphere. These source plates were subsequently used to deliver 10 μM (final concentration) of each drug to 384-well screening plates using a acoustic dispensing Echo 550 instrument equipped with Labcytes Access robotics (Labcyte).
(§2) The fluorometric microculture cytotoxicity assay (FMCA), described in detail previously (Lindhagen et al. [2008]), was used for measurement of the cytotoxic effect of library compounds and the established standard drugs. The FMCA is based on measurement of fluorescence generated from hydrolysis of fluorescein diacetate (FDA) to fluorescein by cells with intact plasma membranes. Cells were seeded in 384-well plates using the pipetting robot Precision 2000 (Bio-Tek Instruments Inc, Winooski, VT) and cultured over night before drugs were added by the Echo 550 system. […] Results are expressed as survival index (SI), defined as fluorescence of experimental wells in per cent of unexposed control wells with blank values subtracted.
Screening data were exported to Vortex (Dotmatics Inc, UK) software for analysis. […] Structural similarity to other compounds in the library was calculated based on a structural fingerprint consisting of chemical fragments located within the compound as computed by Vortex. […]

[4] = tested on: colon cancer cell lines (HCT 116, RKO, HT29, HT-8 and SW626); experiment: FMCA concentration-response, colon cancer cell lines; assay type: cell-based; details: Homo sapiens; all 5 colon cancer cell lines; 72 h FMCA
Method: The colon cancer cell lines HT29, HT-8 and SW626 and the normal phenotype non-malignant epithelial MCF 10A, renal RPTEC/TERT1 and hepatocyte NeHepLxHT cell lines were used for validation experiments. These cell lines were all obtained from ATCC and cultured according to the protocols provided by the supplier. All the cell lines were cultured at 37 °C in a humidified atmosphere containing 5 % CO2.
For dose–response studies, Labcyte source plates and the Echo dispenser were used in a similar manner to deliver different concentrations of each drug to destination plates using on board software protocols (Labcyte).
as §2, with “membranes.” for “membranes. Cells were seeded in 384-well plates using the pipetting robot Precision 2000 (Bio-Tek Instruments Inc, Winooski, VT) and cultured over night before drugs were added by the Echo 550 system.”
Concentration–response data of screening hits and standard agents were analyzed using the software GraphPad Prism4 (GraphPad Software Inc., San Diego, CA, USA). […]

[5] = tested on: refractory metastatic colon cancer; set-up: method as in case report accepted for publication in Acta Oncologica; details: 100 mg twice daily, ref case report accepted for publication in Acta Oncologica, cited from earlier work
NCI 60 cell line panel [6] = tested on: NCI 60 cell line panel; set-up: method as in NCI Cellminer database; details: NCI 60 panel; ref NCI Cellminer database; read-out: average GI 50 over the panel; cited from earlier work
JNK3 = molecular target: T1, JNK3 (Homo sapiens, UniProt P53779); experiment: KINOMEscan binding assay
T1 construct: purchased Discoverx (KINOMEscan service)
Method: as §1

[7] = molecular target: T2, ABL1(E255K) phosphorylated (Homo sapiens, UniProt P00519, E255K); experiment: KINOMEscan binding assay
T2 construct: purchased Discoverx (KINOMEscan service)
Method: as §1

ABL1 phosphorylated = molecular target: T3, ABL1 phosphorylated (Homo sapiens, UniProt P00519); experiment: KINOMEscan binding assay
T3 construct: purchased Discoverx (KINOMEscan service)
Method: as §1

ABL1 nonphosphorylated = molecular target: T4, ABL1 nonphosphorylated (Homo sapiens, UniProt P00519); experiment: KINOMEscan binding assay
T4 construct: purchased Discoverx (KINOMEscan service)
Method: as §1

PDGFRB = molecular target: T5, PDGFRB (Homo sapiens, UniProt P09619); experiment: KINOMEscan binding assay
T5 construct: purchased Discoverx (KINOMEscan service)
Method: as §1

[8] = molecular target: T6, ABL1(T315I) phosphorylated (Homo sapiens, UniProt P00519, T315I); experiment: KINOMEscan binding assay
T6 construct: purchased Discoverx (KINOMEscan service)
Method: as §1

BRAF = molecular target: T7, BRAF (Homo sapiens, UniProt P15056); experiment: KINOMEscan binding assay
T7 construct: purchased Discoverx (KINOMEscan service)
Method: as §1

BRAF(V600E) = molecular target: T8, BRAF(V600E) (Homo sapiens, UniProt P15056, V600E); experiment: KINOMEscan binding assay
T8 construct: purchased Discoverx (KINOMEscan service)
Method: as §1

KIT = molecular target: T9, KIT (Homo sapiens, UniProt P10721); experiment: KINOMEscan binding assay
T9 construct: purchased Discoverx (KINOMEscan service)
Method: as §1

PDGFRA = molecular target: T10, PDGFRA (Homo sapiens, UniProt P16234); experiment: KINOMEscan binding assay
T10 construct: purchased Discoverx (KINOMEscan service)
Method: as §1

NCI 60 cell line panel [9] = experiment: NCI 60 growth inhibitory screen data mining (Cellminer); assay type: cell-based
Method: Analysis of data from the National Cancer Institute growth inhibitory screen in 60 cell lines (NCI 60 GI 50 data) was performed with the help by the NCI Cellminer database (http://discover.nci.nih.gov/cellminer/). Z scores are determined for each experiment/cell line pair by the subtraction from its intensity by the experiment mean (across the 60 cell lines) and division by the standard deviation of the experiment (across the 60 cell lines). The z score average was then calculated as the mean across all experiments that passed quality control criteria. The z score will have a mean of zero and a standard deviation of one.

glioma = tested on: glioma; set-up: method as in Bai et al. [2011]; details: two orthotopic mouse models of glioma; ref Bai et al. [2011]; cited from earlier work
[10] = tested on: protein kinases including Bcr–Abl; set-up: method as in Park et al. [2012]; details: ref Park et al. [2012]; cited from earlier work
[11] = percent of control at 10 μM, read-out: POC (10 μM)

T8 sequence (P15056 whole entry V600E): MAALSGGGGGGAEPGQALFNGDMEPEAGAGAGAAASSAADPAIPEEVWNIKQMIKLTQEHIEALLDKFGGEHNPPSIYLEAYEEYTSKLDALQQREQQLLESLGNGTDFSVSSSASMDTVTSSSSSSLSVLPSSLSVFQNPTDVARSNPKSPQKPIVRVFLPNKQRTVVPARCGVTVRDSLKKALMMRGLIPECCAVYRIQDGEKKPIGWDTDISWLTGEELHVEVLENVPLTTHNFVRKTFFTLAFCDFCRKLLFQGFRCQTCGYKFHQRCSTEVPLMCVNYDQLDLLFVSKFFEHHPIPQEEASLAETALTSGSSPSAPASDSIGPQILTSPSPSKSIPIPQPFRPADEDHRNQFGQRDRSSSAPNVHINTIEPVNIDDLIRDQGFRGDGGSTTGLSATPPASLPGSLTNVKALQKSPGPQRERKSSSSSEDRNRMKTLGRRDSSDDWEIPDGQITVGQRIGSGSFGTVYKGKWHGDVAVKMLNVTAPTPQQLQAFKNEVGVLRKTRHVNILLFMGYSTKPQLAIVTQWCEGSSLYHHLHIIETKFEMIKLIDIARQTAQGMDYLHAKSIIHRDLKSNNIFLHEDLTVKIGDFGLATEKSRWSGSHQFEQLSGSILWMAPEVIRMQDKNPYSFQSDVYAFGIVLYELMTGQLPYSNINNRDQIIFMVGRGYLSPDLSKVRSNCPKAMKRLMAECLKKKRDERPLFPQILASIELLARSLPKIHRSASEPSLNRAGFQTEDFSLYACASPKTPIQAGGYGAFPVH
T9 sequence (P10721 26-976): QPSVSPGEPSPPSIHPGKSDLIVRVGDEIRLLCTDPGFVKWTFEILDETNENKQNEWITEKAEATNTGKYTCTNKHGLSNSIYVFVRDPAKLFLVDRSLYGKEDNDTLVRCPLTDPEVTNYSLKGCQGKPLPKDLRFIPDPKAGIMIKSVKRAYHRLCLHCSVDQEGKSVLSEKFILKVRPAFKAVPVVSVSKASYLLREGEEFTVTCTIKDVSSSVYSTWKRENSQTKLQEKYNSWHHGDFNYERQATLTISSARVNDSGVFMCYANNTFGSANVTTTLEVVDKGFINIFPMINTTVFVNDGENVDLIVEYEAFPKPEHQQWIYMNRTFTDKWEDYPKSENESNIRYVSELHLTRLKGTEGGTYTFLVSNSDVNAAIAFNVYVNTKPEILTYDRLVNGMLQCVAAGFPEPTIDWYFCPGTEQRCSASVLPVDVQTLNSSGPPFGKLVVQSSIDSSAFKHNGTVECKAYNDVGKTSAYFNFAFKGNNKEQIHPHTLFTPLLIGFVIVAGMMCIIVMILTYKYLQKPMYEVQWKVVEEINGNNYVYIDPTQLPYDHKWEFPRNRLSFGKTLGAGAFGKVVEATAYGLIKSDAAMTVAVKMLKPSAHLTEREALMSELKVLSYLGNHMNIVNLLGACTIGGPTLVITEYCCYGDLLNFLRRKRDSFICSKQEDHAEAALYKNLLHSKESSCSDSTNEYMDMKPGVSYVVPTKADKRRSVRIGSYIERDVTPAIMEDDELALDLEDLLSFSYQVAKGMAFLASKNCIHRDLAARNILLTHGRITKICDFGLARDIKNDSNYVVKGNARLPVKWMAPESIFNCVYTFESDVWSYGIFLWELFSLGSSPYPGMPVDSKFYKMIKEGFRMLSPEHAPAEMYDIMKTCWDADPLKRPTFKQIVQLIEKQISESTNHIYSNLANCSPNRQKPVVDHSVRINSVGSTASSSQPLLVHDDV
T10 sequence (P16234 24-1089): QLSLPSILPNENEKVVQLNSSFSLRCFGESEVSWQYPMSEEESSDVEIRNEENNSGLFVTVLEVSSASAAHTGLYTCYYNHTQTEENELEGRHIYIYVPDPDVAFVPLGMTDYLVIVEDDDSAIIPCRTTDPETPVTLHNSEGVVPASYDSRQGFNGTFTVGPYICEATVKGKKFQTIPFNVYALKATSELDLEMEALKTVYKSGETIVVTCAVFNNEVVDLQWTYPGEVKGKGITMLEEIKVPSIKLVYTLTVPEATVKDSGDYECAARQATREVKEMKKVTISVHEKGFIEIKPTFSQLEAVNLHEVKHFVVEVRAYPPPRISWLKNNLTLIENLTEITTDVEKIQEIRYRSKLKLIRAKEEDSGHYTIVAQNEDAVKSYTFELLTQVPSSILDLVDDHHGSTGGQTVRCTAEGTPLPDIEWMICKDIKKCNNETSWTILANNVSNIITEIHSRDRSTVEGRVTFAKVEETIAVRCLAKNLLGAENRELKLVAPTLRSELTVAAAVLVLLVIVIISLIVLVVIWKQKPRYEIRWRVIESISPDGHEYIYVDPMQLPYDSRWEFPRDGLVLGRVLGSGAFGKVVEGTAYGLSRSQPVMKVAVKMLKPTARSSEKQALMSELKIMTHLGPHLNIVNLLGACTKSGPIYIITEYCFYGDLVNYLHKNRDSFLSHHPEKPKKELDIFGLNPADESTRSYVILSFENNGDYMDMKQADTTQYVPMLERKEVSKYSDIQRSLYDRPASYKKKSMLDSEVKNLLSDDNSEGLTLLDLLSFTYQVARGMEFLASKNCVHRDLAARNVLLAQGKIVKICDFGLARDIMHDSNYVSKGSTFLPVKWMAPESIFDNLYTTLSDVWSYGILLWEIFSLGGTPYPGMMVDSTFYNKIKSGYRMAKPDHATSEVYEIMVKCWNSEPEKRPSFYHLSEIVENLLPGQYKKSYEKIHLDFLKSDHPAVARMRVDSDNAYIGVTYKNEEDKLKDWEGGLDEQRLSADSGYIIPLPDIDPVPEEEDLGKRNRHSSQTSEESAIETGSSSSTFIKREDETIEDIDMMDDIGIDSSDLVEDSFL
T1 sequence (P53779 whole entry): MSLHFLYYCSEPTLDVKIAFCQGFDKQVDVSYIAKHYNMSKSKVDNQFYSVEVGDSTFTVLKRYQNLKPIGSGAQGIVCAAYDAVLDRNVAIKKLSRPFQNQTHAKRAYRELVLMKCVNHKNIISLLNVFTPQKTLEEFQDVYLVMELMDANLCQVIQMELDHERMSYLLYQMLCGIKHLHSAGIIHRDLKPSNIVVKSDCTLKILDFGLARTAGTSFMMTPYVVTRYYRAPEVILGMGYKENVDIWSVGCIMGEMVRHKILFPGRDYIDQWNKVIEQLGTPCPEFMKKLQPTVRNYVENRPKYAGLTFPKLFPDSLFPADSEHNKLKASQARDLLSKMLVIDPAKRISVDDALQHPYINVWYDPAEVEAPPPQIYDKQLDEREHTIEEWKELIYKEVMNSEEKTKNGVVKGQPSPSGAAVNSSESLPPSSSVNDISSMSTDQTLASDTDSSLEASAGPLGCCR
T5 sequence (P09619 33-1106): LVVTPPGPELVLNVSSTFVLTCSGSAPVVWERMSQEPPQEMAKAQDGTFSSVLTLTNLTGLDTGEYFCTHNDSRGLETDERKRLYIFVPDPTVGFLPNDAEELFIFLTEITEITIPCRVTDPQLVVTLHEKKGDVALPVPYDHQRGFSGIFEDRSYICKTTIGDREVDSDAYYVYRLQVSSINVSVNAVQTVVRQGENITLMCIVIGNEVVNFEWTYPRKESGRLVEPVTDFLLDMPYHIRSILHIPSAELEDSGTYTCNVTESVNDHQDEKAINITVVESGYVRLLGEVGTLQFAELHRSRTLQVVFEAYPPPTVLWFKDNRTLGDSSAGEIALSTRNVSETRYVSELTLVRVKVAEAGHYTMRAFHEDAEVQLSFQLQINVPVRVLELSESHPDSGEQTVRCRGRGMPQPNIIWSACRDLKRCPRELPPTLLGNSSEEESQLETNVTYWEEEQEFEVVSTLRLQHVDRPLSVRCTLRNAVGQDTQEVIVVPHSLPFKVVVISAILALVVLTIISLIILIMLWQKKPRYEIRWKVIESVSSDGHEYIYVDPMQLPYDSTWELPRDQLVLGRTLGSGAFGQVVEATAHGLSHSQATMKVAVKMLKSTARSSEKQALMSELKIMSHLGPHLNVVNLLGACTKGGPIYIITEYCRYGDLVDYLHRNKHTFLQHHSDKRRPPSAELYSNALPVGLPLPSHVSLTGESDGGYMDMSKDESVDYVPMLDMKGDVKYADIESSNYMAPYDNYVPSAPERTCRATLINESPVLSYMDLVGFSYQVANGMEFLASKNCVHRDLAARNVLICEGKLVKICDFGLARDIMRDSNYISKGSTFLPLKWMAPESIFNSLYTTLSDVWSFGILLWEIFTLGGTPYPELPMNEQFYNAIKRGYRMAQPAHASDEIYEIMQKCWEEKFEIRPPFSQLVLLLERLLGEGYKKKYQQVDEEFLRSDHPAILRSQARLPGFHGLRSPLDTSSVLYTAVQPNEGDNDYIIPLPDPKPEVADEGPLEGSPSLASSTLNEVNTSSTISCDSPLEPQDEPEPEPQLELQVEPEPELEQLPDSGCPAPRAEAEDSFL
T7 sequence (P15056 whole entry): as the sequence (P15056 whole entry V600E) above, with E600V counted along it

Structure (SMILES): CCCSc1ccc2nc(NC(=O)OC)[nH]c2c1 [albendazole]
ROS generation [1]: strong reactive oxygen species (ROS) generation
dose-limiting toxicity ([2]; dose-escalating phase-I trial, ref Pourgholami et al. [2010]): neutropenia
toxicity in clinical study ([2]; patients with advanced cancers, ref Morris et al. [2001]): neutropenia
kinase binding (panel of 97 kinases): no kinase binding was observed
Interactions Mapped (panel of 97 kinases): 1
S-Score(35) (panel of 97 kinases): 0
survival index (SI) [3]: closely followed

IC50 [4]: < 5000 nM
Kd (JNK3; average of two determinations): 420 nM
remaining binding at 10 µM (JNK3; [11]): 5.2%
Kd ([7]; average of two determinations): 78 nM
remaining binding at 10 µM [7, 11]: 0.3%
Kd (ABL1 phosphorylated; average of two determinations): 130 nM
remaining binding at 10 µM (ABL1 phosphorylated; [11]): 0.95%
Kd (ABL1 nonphosphorylated; average of two determinations): 550 nM
remaining binding at 10 µM (ABL1 nonphosphorylated; [11]): 2.4%
Kd (PDGFRB; average of two determinations): 560 nM
remaining binding at 10 µM (PDGFRB; [11]): 2.3%
Kd ([8]; average of two determinations): 170 nM
remaining binding at 10 µM [8, 11]: 4.8%
Kd (BRAF; average of two determinations): 190 nM
remaining binding at 10 µM (BRAF; [11]): 13%
Kd (BRAF(V600E); average of two determinations): 250 nM
remaining binding at 10 µM (BRAF(V600E); [11]): 5.1%
Kd (KIT; average of two determinations): 460 nM
remaining binding at 10 µM (KIT; [11]): 2.9%
Kd (PDGFRA; average of two determinations): 340 nM
remaining binding at 10 µM (PDGFRA; [11]): 15%
Interactions Mapped (panel of 97 kinases): 20
S-Score(35) (panel of 97 kinases): 0.19
Structure (SMILES): COC(=O)Nc1nc2ccc(C(=O)c3ccccc3)cc2[nH]1 [mebendazole]
computerized tomography evaluation, liver ([5]; after six weeks of therapy): good partial remission
computerized tomography evaluation, metastases in the lungs and lymph nodes ([5]; after six weeks of therapy): near complete remission
adverse effects [5]: no subjective adverse effects at all
GI50 (NCI 60 cell line panel [6]): 460 nM
frequency of sensitive cell lines (positive z scores) (NCI 60 cell line panel [9]; colon cancer cell lines of NCI 60): 80%
frequency of sensitive cell lines (positive z scores) (NCI 60 cell line panel [9]; lung cancer subpanel of NCI 60): 25%
frequency of sensitive cell lines (positive z scores) (NCI 60 cell line panel [9]; renal cancer subpanel of NCI 60): 28%
kinase binding (panel of 97 kinases): potent inhibitor of several kinases with high affinity
survival (glioma): significantly increase survival

Structure (SMILES): COC(=O)Nc1nc2ccc(C(=O)c3cccs3)cc2[nH]1 [nocodazole]
protein kinase inhibition [10]: inhibit several protein kinases including Bcr–Abl

Structure (SMILES): CCCOc1ccc2nc(NC(=O)OC)[nH]c2c1 [Oxibendazole, oxibendazole]
survival index (SI) [3]: lowest SIs

Structure (SMILES): COC(=O)Nc1nc2ccc(Sc3ccccc3)cc2[nH]1 [fenbendazole]
survival index (SI) [3]: closely followed
